The nature of the data set: Dog pharmacokinetics. The class given is in vivo. On the procedure:
Dog pharmacokinetics (WuXi App Tec)
As for mouse except using male beagle dogs (IV dose volume: 3 mg/mL; dose vehicle: 10% DMSO, 40% PEG400, 50% (40%HP-β-CD in water); PO dose volume: 2 mg/mL; dose vehicle: 1% CMC-Na(800-1200)+0.2% Tween 80 in water). Pharmacokinetic parameters were derived from the blood concentration-time curve using WinNonLin Professional Software v 6.3 (Pharsight Corporation). […]

The mark [1] stands for this setting: male, beagle, whole blood, dog PO 10 mg/kg.

This is an account of results in article PMC7617456, “Cryptosporidium lysyl-tRNA synthetase inhibitors define the interplay between solubility and permeability required to achieve efficacy” (Science translational medicine, 2024).

Turning to `Nc1nc2c(c(C(F)(F)F)n1)C(=O)N(CC1CCCC(C(F)(F)F)C1)C2` (centres unmarked) [DDD489], the CLB (dog IV 3 mg/kg, clearance in blood) came out at 52 mL/min/kg. Moreover, the half-life (male, beagle, whole blood, 3 mg/kg, dog, IV, read-out: T½ (converted)) was 1.7 h. The Vd (male, beagle, whole blood, 3 mg/kg, dog, IV, read-out: Vdss) stood at 4.2 L/kg. Further, the AUC (male, beagle, whole blood, dog IV 3 mg/kg) is 1000 ng·h/mL. For the same molecule, under setting [1], the AUC is 667 ng·h/mL, the Cmax worked out at 200 ng/mL and the time to peak (Tmax) was found to be 1.2 h. Where the note is “male, beagle, whole blood, dog PO 10 mg/kg, read-out: F (oral bioavailability)”, the bioavailability turned out to be 18%.
